Assay results: PubChem BioAssay (NCI)
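96-well plates; 48 h exposure; 5 concentrations. Endpoints by linear interpolation between flanking doses. Not reached: highest tested concentration assigned. GI50 is the concentration that inhibits growth by half. TGI marks complete inhibition of growth.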

Tests used:
Assay in all cases: DTP human tumour cell line panel, 48 h
786-0 renal = system: 786-0 renal
A498 renal = system: A498 renal
A549 NSCLC = system: A549 NSCLC
ACHN renal = system: ACHN renal
BT-549 breast = system: BT-549 breast
CAKI-1 renal = system: CAKI-1 renal
COLO 205 colon = system: COLO 205 colon
DU-145 prostate = system: DU-145 prostate
EKVX NSCLC = system: EKVX NSCLC
HCT-116 colon = system: HCT-116 colon
HCT-15 colon = system: HCT-15 colon
HL-60(TB) leukemia = system: HL-60(TB) leukemia
HOP-62 NSCLC = system: HOP-62 NSCLC
HOP-92 NSCLC = system: HOP-92 NSCLC
HT29 colon = system: HT29 colon
IGROV1 ovarian = system: IGROV1 ovarian
KM12 colon = system: KM12 colon
LOX IMVI melanoma = system: LOX IMVI melanoma
M14 melanoma = system: M14 melanoma
MALME-3M melanoma = system: MALME-3M melanoma
MCF7 breast = system: MCF7 breast
MDA-MB-231 breast = system: MDA-MB-231 breast
MDA-MB-435 = system: MDA-MB-435
MDA-N = system: MDA-N
MOLT-4 leukemia = system: MOLT-4 leukemia
NCI-H226 lung = system: NCI-H226 lung
NCI-H23 lung = system: NCI-H23 lung
NCI-H460 lung = system: NCI-H460 lung
NCI/ADR-RES ovarian = system: NCI/ADR-RES ovarian
OVCAR-3 ovarian = system: OVCAR-3 ovarian
OVCAR-4 ovarian = system: OVCAR-4 ovarian
OVCAR-5 ovarian = system: OVCAR-5 ovarian
OVCAR-8 ovarian = system: OVCAR-8 ovarian
PC-3 prostate = system: PC-3 prostate
RPMI-8226 leukemia = system: RPMI-8226 leukemia
RXF 393 renal = system: RXF 393 renal
SF-295 CNS = system: SF-295 CNS
SF-539 CNS = system: SF-539 CNS
SK-MEL-2 melanoma = system: SK-MEL-2 melanoma
SK-MEL-28 melanoma = system: SK-MEL-28 melanoma
SK-MEL-5 melanoma = system: SK-MEL-5 melanoma
SN12C renal = system: SN12C renal
SNB-19 CNS = system: SNB-19 CNS
SR leukemia = system: SR leukemia
SW-620 colon = system: SW-620 colon
T-47D breast = system: T-47D breast
U251 CNS = system: U251 CNS
UACC-62 melanoma = system: UACC-62 melanoma
UO-31 renal = system: UO-31 renal
HCC-2998 colon = system: HCC-2998 colon
HS 578T breast = system: HS 578T breast
NCI-H522 lung = system: NCI-H522 lung
SF-268 CNS = system: SF-268 CNS
SK-OV-3 ovarian = system: SK-OV-3 ovarian
SNB-75 CNS = system: SNB-75 CNS
TK-10 renal = system: TK-10 renal
UACC-257 melanoma = system: UACC-257 melanoma

## N[C@H]1CCN(c2c(F)cc3c(=O)c(C(=O)O)cn4c3c2Oc2c-4ccc3c2ccc2ccccc23)C1
786-0 renal
  TGI: > 36.6 µM
A498 renal
  TGI: > 100 µM
A549 NSCLC
  TGI: > 100 µM
ACHN renal
  TGI: > 24.4 µM
BT-549 breast
  TGI: > 69.3 µM
CAKI-1 renal
  TGI: > 25.5 µM
COLO 205 colon
  TGI: > 100 µM
DU-145 prostate
  TGI: > 62.7 µM
EKVX NSCLC
  TGI: > 24.7 µM
HCT-116 colon
  TGI: > 35.3 µM
HCT-15 colon
  TGI: > 51.3 µM
HL-60(TB) leukemia
  TGI: > 85.6 µM
HOP-62 NSCLC
  TGI: > 100 µM
HOP-92 NSCLC
  TGI: > 49.6 µM
HT29 colon
  TGI: > 100 µM
IGROV1 ovarian
  TGI: > 48.8 µM
KM12 colon
  TGI: > 62.7 µM
LOX IMVI melanoma
  TGI: 22.9 µM
M14 melanoma
  TGI: > 100 µM
MALME-3M melanoma
  TGI: > 100 µM
MCF7 breast
  TGI: > 100 µM
MDA-MB-231 breast
  TGI: > 100 µM
MDA-MB-435
  TGI: > 39.6 µM
MDA-N
  TGI: > 53.6 µM
MOLT-4 leukemia
  GI50: 0.266 µM
  TGI: > 100 µM
NCI-H226 lung
  TGI: > 100 µM
NCI-H23 lung
  TGI: > 71.7 µM
NCI-H460 lung
  TGI: 2.42 µM
NCI/ADR-RES ovarian
  TGI: > 100 µM
OVCAR-3 ovarian
  TGI: > 100 µM
OVCAR-4 ovarian
  TGI: > 33.2 µM
OVCAR-5 ovarian
  TGI: > 100 µM
OVCAR-8 ovarian
  TGI: > 100 µM
PC-3 prostate
  TGI: > 47.3 µM
RPMI-8226 leukemia
  TGI: 4.11 µM
RXF 393 renal
  TGI: 16.6 µM
SF-295 CNS
  TGI: > 100 µM
SF-539 CNS
  TGI: > 100 µM
SK-MEL-2 melanoma
  TGI: > 100 µM
SK-MEL-28 melanoma
  TGI: > 100 µM
SK-MEL-5 melanoma
  TGI: > 100 µM
SN12C renal
  TGI: > 100 µM
SNB-19 CNS
  TGI: > 100 µM
SR leukemia
  GI50: 0.283 µM
  TGI: > 100 µM
SW-620 colon
  TGI: > 100 µM
T-47D breast
  TGI: > 100 µM
U251 CNS
  TGI: 6.76 µM
UACC-62 melanoma
  TGI: > 100 µM
UO-31 renal
  TGI: > 71.3 µM

## O=C(NC(CCCCN1C(=O)c2ccccc2C1=O)P(=O)(Oc1ccccc1)Oc1ccccc1)OCc1ccccc1 (stereo not given)
786-0 renal
  TGI: > 100 µM
A549 NSCLC
  TGI: > 100 µM
ACHN renal
  TGI: > 100 µM
BT-549 breast
  TGI: > 100 µM
CAKI-1 renal
  TGI: > 100 µM
COLO 205 colon
  TGI: > 100 µM
DU-145 prostate
  TGI: > 100 µM
EKVX NSCLC
  TGI: > 100 µM
HCC-2998 colon
  TGI: > 100 µM
HOP-62 NSCLC
  TGI: > 100 µM
HOP-92 NSCLC
  TGI: > 100 µM
HS 578T breast
  TGI: > 100 µM
HT29 colon
  TGI: > 100 µM
IGROV1 ovarian
  TGI: > 100 µM
KM12 colon
  TGI: > 100 µM
M14 melanoma
  TGI: > 100 µM
MALME-3M melanoma
  TGI: > 100 µM
MCF7 breast
  TGI: > 100 µM
MDA-MB-435
  TGI: > 100 µM
MDA-N
  TGI: > 100 µM
NCI-H226 lung
  TGI: > 100 µM
NCI-H23 lung
  TGI: > 100 µM
NCI-H460 lung
  TGI: > 100 µM
NCI-H522 lung
  TGI: > 100 µM
NCI/ADR-RES ovarian
  TGI: > 100 µM
OVCAR-3 ovarian
  TGI: > 100 µM
OVCAR-5 ovarian
  TGI: > 100 µM
OVCAR-8 ovarian
  TGI: > 100 µM
PC-3 prostate
  TGI: > 100 µM
RPMI-8226 leukemia
  TGI: > 100 µM
RXF 393 renal
  TGI: > 100 µM
SF-268 CNS
  TGI: > 100 µM
SF-295 CNS
  TGI: > 100 µM
SF-539 CNS
  TGI: > 100 µM
SK-MEL-2 melanoma
  TGI: > 100 µM
SK-MEL-28 melanoma
  TGI: > 100 µM
SK-MEL-5 melanoma
  TGI: > 100 µM
SK-OV-3 ovarian
  TGI: > 100 µM
SN12C renal
  TGI: > 100 µM
SNB-19 CNS
  TGI: > 100 µM
SNB-75 CNS
  TGI: > 100 µM
SR leukemia
  TGI: > 100 µM
SW-620 colon
  TGI: > 100 µM
T-47D breast
  TGI: > 100 µM
TK-10 renal
  TGI: > 100 µM
U251 CNS
  TGI: > 100 µM
UACC-257 melanoma
  TGI: > 100 µM
UACC-62 melanoma
  TGI: > 100 µM
UO-31 renal
  TGI: > 100 µM
